Test results from ChEMBL document CHEMBL5500349, “Discovery of ganoderic acid A (GAA) PROTACs as MDM2 protein degraders for the treatment of breast cancer” (Eur J Med Chem, 2024).
Activity calls are given as the source filed them. The rule behind the calls is not given here.

How the values were obtained:
MCF7 = assay: Antiproliferative activity against human MCF7 cells assessed as cell viability at 100 uM incubated for 48 to 72 hrs by MTT assay; type: functional; details: time 48-72 hrs, read-out: Activity
MDA-MB-231 [1] = assay: Antiproliferative activity against human MDA-MB-231 cells assessed as cell viability at 100 uM incubated for 48 to 72 hrs by MTT assay; type: functional; details: time 48-72 hrs, read-out: Activity
SJSA-1 = assay: Antiproliferative activity against human SJSA-1 cells assessed as cell viability at 100 uM incubated for 48 to 72 hrs by MTT assay; type: functional; details: time 48-72 hrs, read-out: Activity
HepG2 = assay: Antiproliferative activity against human HepG2 cells assessed as cell viability at 100 uM incubated for 48 to 72 hrs by MTT assay; type: functional; details: time 48-72 hrs, read-out: Activity
[2] = Cytotoxicity against mouse HT-22 cells assessed as cell viability at 100 uM incubated for 48 to 72 hrs by MTT assay; type: toxicity, cell-based; details: time 48-72 hrs, read-out: Activity
[3] = biological target: T1, von Hippel-Lindau disease tumor suppressor/E3 ubiquitin-protein ligase Mdm2 (Homo sapiens, UniProt Q00987+P40337); assay: Protac activity at VHL/MDM2 in human MDA-MB-231 cells assessed as reduction in MDM2 protein level after 48 hrs by Western blotting analysis; type: cell-based; details: dose 20-80 µM
[4] = biological target: T1, von Hippel-Lindau disease tumor suppressor/E3 ubiquitin-protein ligase Mdm2; assay: Protac activity at VHL/MDM2 in human MDA-MB-231 cells assessed as reduction in MDM2 protein level at 80 uM after 48 hrs by Western blotting analysis; type: cell-based; design: scale not given: the % may be the effect or the level left
[5] = biological target: T1, von Hippel-Lindau disease tumor suppressor/E3 ubiquitin-protein ligase Mdm2; assay: Protac activity at VHL/MDM2 in human MDA-MB-231 cells assessed as upregulation of p21 level at 20 to 80 uM after 48 hrs by Western blotting analysis; type: cell-based; details: dose 20-80 µM
[6] = biological target: T1, von Hippel-Lindau disease tumor suppressor/E3 ubiquitin-protein ligase Mdm2; assay: Protac activity at VHL/MDM2 in human MDA-MB-231 cells assessed as reduction in MDM2 protein level at 80 uM pretreated with MG-132 for 2 hrs followed by compound addition and measured after 48 hrs by Western blotting analysis; type: cell-based
[7] = biological target: T2, E3 ubiquitin-protein ligase Mdm2 (Homo sapiens, UniProt Q00987); assay: Binding affinity to MDM2 (unknown origin) by SPR assay
Target sequence in this assay (Q00987 whole entry): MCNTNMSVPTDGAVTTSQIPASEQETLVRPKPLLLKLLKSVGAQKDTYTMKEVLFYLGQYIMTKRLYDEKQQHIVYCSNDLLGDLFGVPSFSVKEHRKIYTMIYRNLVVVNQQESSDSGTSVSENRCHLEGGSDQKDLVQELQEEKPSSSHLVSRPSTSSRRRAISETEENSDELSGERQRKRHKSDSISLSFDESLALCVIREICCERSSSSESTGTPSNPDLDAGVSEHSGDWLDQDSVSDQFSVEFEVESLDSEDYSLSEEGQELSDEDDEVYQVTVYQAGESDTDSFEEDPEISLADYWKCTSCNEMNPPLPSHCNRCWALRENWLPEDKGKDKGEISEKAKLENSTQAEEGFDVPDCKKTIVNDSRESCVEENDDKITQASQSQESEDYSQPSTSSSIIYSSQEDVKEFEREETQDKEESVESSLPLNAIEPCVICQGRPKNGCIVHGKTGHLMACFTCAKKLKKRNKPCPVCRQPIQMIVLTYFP

[8] = biological target: T2, E3 ubiquitin-protein ligase Mdm2; assay: Binding affinity to MDM2 (unknown origin) assessed as increase in protein stability incubated for 30 mins by CETSA
Target sequence in this assay (Q00987 whole entry, looked up): as the sequence (Q00987 whole entry) above

MDA-MB-231 [9] = assay: Induction of apoptosis in human MDA-MB-231 cells assessed as reduction in bcl-2/bax ratio at 20 to 40 uM by Western blotting analysis; type: functional, cell-based; details: dose 20-40 µM
MDA-MB-231 [10] = assay: Induction of cell cycle arrest in human MDA-MB-231 cells assessed as increase in number of G1 phase cells at 80 uM after 48 hrs by PI/RNase staining based flow cytometry analysis; type: functional
MDA-MB-231 [11] = assay: Induction of cell cycle arrest in human MDA-MB-231 cells assessed as decrease in number of S phase cells at 80 uM after 48 hrs by PI/RNase staining based flow cytometry analysis; type: functional
MDA-MB-231 [12] = assay: Induction of cell cycle arrest in human MDA-MB-231 cells assessed as increase in number of G2 phase cells at 80 uM after 48 hrs by PI/RNase staining based flow cytometry analysis; type: functional
MDA-MB-231 [13] = assay: Induction of G1/S phase arrest in human MDA-MB-231 cells assessed as increase in p21 mRNA expression at 20 to 80 uM by qRT-PCR analysis; type: functional, cell-based; details: dose 20-80 µM
MDA-MB-231 [14] = assay: Induction of G2/M phase arrest in human MDA-MB-231 cells assessed as decrease in cyclin B1 protein expression at 20 to 80 uM by Western blotting analysis; type: functional, cell-based; details: dose 20-80 µM
MDA-MB-231 [15] = assay: Induction of apoptosis in human MDA-MB-231 cells assessed as viable cells at 20 uM incubated for 48 hrs by Annexin-V FITC/PI staining based flow cytometry analysis (reference value: 90.3%); type: functional; details: read-out: Activity
MDA-MB-231 [16] = assay: Induction of apoptosis in human MDA-MB-231 cells assessed as early apoptotic cells at 20 uM incubated for 48 hrs by Annexin-V FITC/PI staining based flow cytometry analysis (reference value: 3.37%); type: functional
MDA-MB-231 [17] = assay: Induction of apoptosis in human MDA-MB-231 cells assessed as late apoptotic cells at 20 uM incubated for 48 hrs by Annexin-V FITC/PI staining based flow cytometry analysis (reference value: 6.04%); type: functional
MDA-MB-231 [18] = assay: Induction of apoptosis in human MDA-MB-231 cells assessed as necrotic cells at 20 uM incubated for 48 hrs by Annexin-V FITC/PI staining based flow cytometry analysis (reference value: 0.26%); type: functional
MDA-MB-231 [19] = assay: Induction of apoptosis in human MDA-MB-231 cells assessed as viable cells at 40 uM incubated for 48 hrs by Annexin-V FITC/PI staining based flow cytometry analysis (reference value: 90.3%); type: functional; details: read-out: Activity
MDA-MB-231 [20] = assay: Induction of apoptosis in human MDA-MB-231 cells assessed as early apoptotic cells at 40 uM incubated for 48 hrs by Annexin-V FITC/PI staining based flow cytometry analysis (reference value: 3.37%); type: functional
MDA-MB-231 [21] = assay: Induction of apoptosis in human MDA-MB-231 cells assessed as late apoptotic cells at 40 uM incubated for 48 hrs by Annexin-V FITC/PI staining based flow cytometry analysis (reference value: 6.04%); type: functional
MDA-MB-231 [22] = assay: Induction of apoptosis in human MDA-MB-231 cells assessed as necrotic cells at 40 uM incubated for 48 hrs by Annexin-V FITC/PI staining based flow cytometry analysis (reference value: 0.26%); type: functional
MDA-MB-231 [23] = assay: Induction of apoptosis in human MDA-MB-231 cells assessed as viable cells at 80 uM incubated for 48 hrs by Annexin-V FITC/PI staining based flow cytometry analysis (reference value: 90.3%); type: functional; details: read-out: Activity
MDA-MB-231 [24] = assay: Induction of apoptosis in human MDA-MB-231 cells assessed as early apoptotic cells at 80 uM incubated for 48 hrs by Annexin-V FITC/PI staining based flow cytometry analysis (reference value: 3.37%); type: functional
MDA-MB-231 [25] = assay: Induction of apoptosis in human MDA-MB-231 cells assessed as late apoptotic cells at 80 uM incubated for 48 hrs by Annexin-V FITC/PI staining based flow cytometry analysis (reference value: 6.04%); type: functional
MDA-MB-231 [26] = assay: Induction of apoptosis in human MDA-MB-231 cells assessed as necrotic cells at 80 uM incubated for 48 hrs by Annexin-V FITC/PI staining based flow cytometry analysis (reference value: 0.26%); type: functional
MDA-MB-231 [27] = assay: Downregulation of MDM2 expression in human MDA-MB-231 cells at 20 to 80 uM incubated for 48 hrs by immunofluorescence analysis; type: functional, cell-based; details: dose 20-80 µM
MDA-MB-231 [28] = assay: Upregulation of p21 expression in human MDA-MB-231 cells at 20 to 80 uM incubated for 48 hrs by immunofluorescence analysis; type: functional, cell-based; details: dose 20-80 µM
MDA-MB-231 [29] = assay: Inhibition of cell migration in human MDA-MB-231 cells at 80 uM incubated for 24 hrs by wound healing assay; type: functional, cell-based
MDA-MB-231 [30] = assay: Inhibition of cell migration in human MDA-MB-231 cells at 80 uM incubated for 48 hrs by wound healing assay; type: functional, cell-based
[31] = Toxicity in zebrafish assessed as death at < 50 ug/ml; design: species or system Danio rerio; details: in vivo, dose < 50 µg/ml
[32] = Toxicity in zebrafish assessed as appearance of toxic phenotype at < 50 ug/ml; design: species or system Danio rerio; details: in vivo, dose < 50 µg/ml
[33] = Toxicity in zebrafish assessed as minimum toxic concentration measured after 2 days; design: species or system Danio rerio; details: in vivo, 48 h, time 2 day
[34] = Toxicity in zebrafish assessed as mortality rate at 6.25 ug/ml; design: species or system Danio rerio; details: in vivo, at 6.25 µg/mL, read-out: Activity
[35] = Toxicity in zebrafish assessed as mortality rate at 12.5 ug/ml; design: species or system Danio rerio; details: in vivo, at 12.5 µg/mL, read-out: Activity
[36] = Toxicity in zebrafish assessed as mortality rate at 25 ug/ml; design: species or system Danio rerio; details: in vivo, at 25 µg/mL, read-out: Activity
[37] = Toxicity in zebrafish assessed as mortality rate at 50 ug/ml; design: species or system Danio rerio; details: in vivo, at 50 µg/mL, read-out: Activity
[38] = Toxicity in zebrafish assessed as mortality rate at 100 ug/ml; design: species or system Danio rerio; details: in vivo, at 100 µg/mL, read-out: Activity
MDA-MB-231 [39] = assay: Antitumor activity against human MDA-MB-231 cells xenografted in zebrafish assessed as inhibition rate at 12.5 ug/ml after 2 days by fluorescence microscopic method; type: functional; design: scale not given: the % may be the effect or the level left; details: dose 12.5 µg/ml; time 2 day
MDA-MB-231 [40] = assay: Antitumor activity against human MDA-MB-231 cells xenografted in zebrafish assessed as inhibition rate at 25 ug/ml after 2 days by fluorescence microscopic method; type: functional; design: scale not given: the % may be the effect or the level left; details: dose 25 µg/ml; time 2 day
MDA-MB-231 [41] = assay: Antitumor activity against human MDA-MB-231 cells xenografted in zebrafish assessed as inhibition rate at 50 ug/ml after 2 days by fluorescence microscopic method; type: functional; design: scale not given: the % may be the effect or the level left; details: dose 50 µg/ml; time 2 day

T1 sequence (P40337 whole entry, looked up): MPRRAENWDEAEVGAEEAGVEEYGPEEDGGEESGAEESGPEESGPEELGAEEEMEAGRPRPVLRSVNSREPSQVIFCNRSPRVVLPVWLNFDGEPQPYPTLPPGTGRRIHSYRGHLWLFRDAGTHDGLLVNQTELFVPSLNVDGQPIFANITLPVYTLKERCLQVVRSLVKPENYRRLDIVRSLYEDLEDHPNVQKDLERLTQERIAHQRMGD
T1 sequence (Q00987 whole entry, looked up): as the sequence (Q00987 whole entry) above

Cc1ncsc1-c1ccc([C@H](C)NC(=O)[C@@H]2C[C@@H](O)CN2C(=O)[C@@H](NC(=O)CCCCc2cn(CCOCCOCCOCCOCCNC(=O)[C@H](C)CC(=O)C[C@@H](C)[C@H]3C[C@H](O)[C@@]4(C)C5=C(C(=O)C[C@]34C)[C@@]3(C)CCC(=O)C(C)(C)[C@@H]3C[C@@H]5O)nn2)C(C)(C)C)cc1
viability at 100 µM (MCF7): 30.6% | viability at 100 µM (MDA-MB-231 [1]): 16.9% | viability at 100 µM (SJSA-1): 61.3% | viability at 100 µM (HepG2): 92.9% | viability at 100 µM [2]: 91.3% | Activity [3]: Dose-Dependent Effect | Activity [4]: 51% | Activity [5]: Active | Activity [6]: inactive | Kd [7]: 38.2 µM | Activity [8]: Active | Activity (MDA-MB-231 [9]): Active | Activity (MDA-MB-231 [10]): Active | Activity (MDA-MB-231 [11]): Active | Activity (MDA-MB-231 [12]): Active | Activity (MDA-MB-231 [13]): Active | Activity (MDA-MB-231 [14]): Active | viability at 20 µM (MDA-MB-231 [15]): 90.1% | Activity (MDA-MB-231 [16]): 4.38% | Activity (MDA-MB-231 [17]): 5.34% | Activity (MDA-MB-231 [18]): 0.21% | viability at 40 µM (MDA-MB-231 [19]): 82.3% | Activity (MDA-MB-231 [20]): 7.17% | Activity (MDA-MB-231 [21]): 10.4% | Activity (MDA-MB-231 [22]): 0.13% | viability at 80 µM (MDA-MB-231 [23]): 41.4% | Activity (MDA-MB-231 [24]): 47.4% | Activity (MDA-MB-231 [25]): 10.4% | Activity (MDA-MB-231 [26]): 0.82% | Activity (MDA-MB-231 [27]): Active | Activity (MDA-MB-231 [28]): Active | inhibition (MDA-MB-231 [29]): Active | inhibition (MDA-MB-231 [30]): Active | Activity [31]: Non-Toxic | Activity [32]: Non-Toxic | MTC [33]: 50 µg/mL | mortality at 6.25 ug/ml [34]: 0% | mortality at 12.5 ug/ml [35]: 0% | mortality at 25 ug/ml [36]: 0% | mortality at 50 ug/ml [37]: 0% | mortality at 100 ug/ml [38]: 13% | Activity (MDA-MB-231 [39]): 16.8% | Activity (MDA-MB-231 [40]): 23.4% | Activity (MDA-MB-231 [41]): 27.2%
